Data published in the supplement of paper PMC10307832.

Experiments:
Assay in all cases: relative viability (nuclei count vs DMSO), 5 days (fraction); higher = more cells survive
[1] = compound: C1=CC=C(C(=C1)C2=CC=C(C=C2)C3=CSC4=C3C(=C(C(=O)N4)C#N)O)O
Procedure, shortened: (§1)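 Acceptance criteria were a control CV below 25% and at least one doubling per plate. Lung cancer cell lines in 1536-well plates got five library-drug doses (not always all listed) √10 apart by pinning and were left 5 days with no medium change. Viability divides treated-well nuclei by vehicle-well nuclei and is the median across plates. Nuclei were counted by MetaXpress from 4× Hoechst images.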

[2] = compound: CC1=CN2C(=O)C=C(N=C2C(=C1)C(C)NC3=CC=CC=C3)N4CCOCC4 [TGX 221]
Procedure, shortened: as §1

[3] = compound: O=C(CCCCCCNC(=O)c1cnc(N(c2ccccc2)c2ccccc2)nc1)NO [Ricolinostat]
Procedure, shortened: as §1

Cell Line	relative viability ([1]; 0.08 µM)	relative viability ([1]; 0.253 µM)	relative viability ([1]; 0.8 µM)	relative viability ([1]; 2.53 µM)	relative viability ([1]; 8 µM)	relative viability ([2]; 0.08 µM)	relative viability ([2]; 0.253 µM)	relative viability ([2]; 0.8 µM)	relative viability ([2]; 2.53 µM)	relative viability ([2]; 8 µM)	relative viability ([3]; 0.08 µM)	relative viability ([3]; 0.253 µM)	relative viability ([3]; 0.8 µM)	relative viability ([3]; 2.53 µM)
NCI-H647	0.825	1	0.903	0.892	0.707	0.856	0.809	0.889	0.738	0.621	0.745	0.903	0.867	0.712
NCI-H650	0.85	1.04	0.835	1.01	0.877	0.873	0.964	0.853	0.867	0.889	0.769	0.969	0.874	0.696
NCI-H661	1.11	1.03	1.03	0.97	0.834	1.02	1.02	0.971	0.999	0.846	0.836	0.981	1.02	0.803
NCI-H727	1.02	0.92	0.987	0.808	0.842	0.885	0.887	0.948	0.898	0.97	0.763	1.11	1	0.81
NCI-H838	0.893	1.06	0.98	0.882	0.824	0.946	0.833	0.886	0.83	0.761	0.822	1.05	0.981	0.95
NCI-H1299	1.09	1.07	1.01	1.06	0.897	0.98	1.01	1.01	1.06	0.993	0.997	0.983	0.982	0.954
NCI-H1355	0.839	1.13	1.02	1.02	0.955	0.979	0.948	0.972	0.864	0.902	0.855	0.97	0.948	0.893
NCI-H1395	–	0.925	0.837	0.944	0.888	0.787	0.801	0.838	0.664	0.703	–	0.922	0.746	0.833
NCI-H1437	0.935	1.11	0.994	1.14	0.891	1.02	0.942	0.998	0.983	0.929	0.951	0.993	0.969	0.763
NCI-H1563	0.959	0.971	0.976	0.955	0.989	0.947	0.915	0.831	0.866	0.748	0.894	1.02	0.837	0.864
NCI-H1623	1.04	1.1	0.927	1.04	0.774	1.04	0.863	0.949	0.82	0.991	0.933	0.972	1.12	0.889
NCI-H1648	0.644	0.68	0.755	0.794	0.739	0.736	0.656	0.974	0.686	0.873	0.719	1.04	0.745	0.792
NCI-H1650	0.727	1.29	0.913	0.93	0.612	0.979	0.816	0.862	0.859	0.705	0.774	0.884	0.789	0.678
NCI-H1651	0.997	0.973	1.07	1	0.821	0.923	0.891	0.953	0.956	0.879	0.913	0.936	0.971	0.966
NCI-H1666	1.02	1.3	1.03	0.998	0.873	1.01	0.955	0.946	0.97	0.933	0.963	0.948	0.986	0.904
NCI-H1703	0.929	0.965	0.902	0.892	0.789	0.892	0.785	0.776	0.672	0.634	–	1.01	0.928	1
NCI-H1734	0.833	0.992	0.971	1.01	0.753	0.91	0.892	1	0.934	0.9	0.81	1.03	0.935	0.894
NCI-H1755	1.06	1.08	0.991	1.05	0.923	0.954	0.971	0.972	0.915	0.828	0.885	0.961	0.978	1.03
NCI-H1793	0.786	1.17	0.9	0.834	0.945	0.858	0.628	0.748	0.574	0.668	–	0.924	0.905	0.898
NCI-H1915	0.967	1.06	0.892	1.05	0.869	0.937	0.985	0.993	0.871	0.994	0.899	0.968	0.976	0.862
NCI-H1944	0.902	1.05	0.94	0.965	0.844	0.82	0.915	0.911	0.883	0.851	0.835	1.03	0.876	0.692

Cell Line	relative viability ([1]; 0.08 µM)	relative viability ([1]; 0.253 µM)	relative viability ([1]; 0.8 µM)	relative viability ([1]; 2.53 µM)	relative viability ([1]; 8 µM)	relative viability ([2]; 0.08 µM)	relative viability ([2]; 0.253 µM)	relative viability ([2]; 0.8 µM)	relative viability ([2]; 2.53 µM)	relative viability ([2]; 8 µM)	relative viability ([3]; 0.08 µM)	relative viability ([3]; 0.253 µM)	relative viability ([3]; 0.8 µM)	relative viability ([3]; 2.53 µM)
NCI-H1975	0.892	0.949	0.932	0.887	0.772	0.911	0.866	0.998	0.844	0.785	0.928	0.895	0.803	0.872
NCI-H1993	0.892	1.17	0.897	0.87	0.83	0.878	0.762	0.886	0.681	0.877	0.726	1	0.999	1.04
NCI-H2009	0.971	1.01	0.987	1.01	0.884	0.967	0.987	1.01	0.999	0.868	0.861	0.929	0.905	0.75
NCI-H2023	0.996	1.04	1.02	1.01	0.722	0.901	0.89	0.927	0.889	0.845	0.752	1.01	0.931	0.821
NCI-H2085	0.905	1.13	0.982	0.964	0.917	1.01	0.933	0.863	0.644	0.585	–	0.986	0.972	0.88
NCI-H2087	1.02	1.21	1.08	1.05	0.637	1.19	1.15	1.12	1	0.988	0.912	1.02	0.974	0.699
NCI-H2126	0.943	1.09	1	0.963	0.979	0.945	0.989	0.968	0.837	0.944	0.718	1.01	0.989	0.969
NCI-H2170	1.01	0.961	0.953	0.995	0.804	0.959	0.958	0.989	0.93	0.993	0.904	0.939	1.01	1.04
NCI-H2228	1.08	1.1	1.19	1.07	0.782	0.831	0.97	1.04	0.846	0.996	0.99	0.981	0.944	0.921
NCI-H2342	0.971	1.15	0.926	0.953	0.795	0.912	0.997	0.947	1.01	0.945	0.768	0.912	0.916	1.05
NCI-H2347	0.996	1.15	0.989	1.07	0.916	0.898	0.987	0.986	0.88	0.851	0.911	0.964	0.994	0.92
NCI-H2405	0.977	0.995	0.927	0.958	0.955	0.949	0.991	0.968	0.954	0.889	0.878	1	1.01	0.802
NCI-H3122	0.974	1.03	1.03	1.08	0.843	1	0.985	1.02	0.969	1.01	0.94	1.01	0.992	1.07
PC-3 [JPC-3]	0.898	1.11	0.959	1.08	0.944	0.971	1.05	1.04	0.998	1.03	0.801	0.977	1.01	0.883
PC-14	0.844	1.24	0.952	1.09	0.806	0.913	0.953	0.983	1.02	0.907	0.932	0.927	0.902	0.798
RERF-LC-KJ	1.07	1.07	0.987	1.01	0.8	0.895	0.933	0.964	0.917	0.938	0.955	1.02	0.984	0.814
SK-LU-1	1.11	0.96	0.994	1.16	0.81	0.954	0.964	0.963	0.932	0.876	0.939	0.981	0.995	0.72
SK-MES-1	1.01	1.06	1.01	1.04	0.819	1.01	0.958	0.941	0.75	0.67	0.824	0.979	0.983	0.979
SW 900	0.81	1.22	0.809	0.773	0.56	0.839	0.938	0.742	0.608	0.601	0.591	0.832	0.647	0.74
SW 1573	1.06	1.17	1.01	1.03	0.738	0.895	0.876	0.961	0.906	0.902	0.936	1.07	0.896	1.02
UMC-11	0.793	0.892	1.07	0.921	0.813	0.957	0.91	1	0.976	1.08	0.889	0.945	0.866	0.464
